Reference: patent EP3623009A1, “MODULATION OF TRF1 FOR BRAIN CANCER TREATMENT” (Fundación del Sector Público Estatal Centro Nacional de …, priority 2018, dated 2020)
“Also recorded” adds a separate entry of the source. Each block holds one compound with its values, some of them ahead of it.

Experiments:
p-AKT = p-AKT activation (p-AKT/AKT ratio, western blot) in h676 GSCs; assay type: cell-based, human; settings: 24h at 1 µM
Method: In order to check whether the novel compounds act independently of this pathway, the present inventors treated the cells for 24h at 1 µM concentration and checked p-AKT activation.

h676 GSCs [1] = assay: Drug combination (synergy) sphere study in h676 GSCs; assay type: cell-based, human; settings: combinatorial matrix, spheres after 7 days, combination index
Method: Using this concentration as a reference point, the present inventors designed a combinatorial matrix using different concentrations of the compounds (e.g. 2x GI50, GI50 and ½ GI50) to study all the possible combinations. Combination index is calculated to establish if the combination is synergistic, additive or antagonistic (Fig. 50A).

h543 GSCs [2] = assay: Sphere formation assay in h543 patient-derived GSCs; assay type: cell-based, human; settings: for sphere formation (dose-response): h543 GSCs, treated 7 days; for diameter of spheres / number of spheres: h543 patient-derived primary GSCs, compared to untreated controls
Method: (§1) Spheres were dissociated into single cells and seeded at a density of 50, 100, 200 and 400 cells/well in a 96 well plate. Neurosphere number was assessed after 7 days. Pictures were taken using Nikon Eclipse Ti-U microscope and neurosphere diameter was measured using NIS Elements BR software.

h676 GSCs [3] = assay: Sphere formation assay in h676 patient-derived GSCs; assay type: cell-based, human; settings: for sphere formation (dose-response): h676 GSCs, treated 7 days; for diameter of spheres / number of spheres: h676 patient-derived primary GSCs, compared to untreated controls
Method: as §1

[4] = Tolerability and pathology of xenograft mice after long-term treatment; assay type: in vivo, nude mice
Method: h676 and h543 patient-derived GSCs were dissociated using a 200 µl pipet and resuspended in NeuroCult medium and matrigel in a 1:1 ratio in a concentration of 1000 cell/µl. Nude mice (athymic Nude-Foxn1^nu/nu from Harlan) were injected subcutaneously with 100 µl of the cell preparation. ETP-47037 (or vehicle) was orally administrated at a concentration of 75 mg/kg 5 days per week (see also section 8), starting one week after cell injection. The vehicle consisted in 10% N-methyl-2-pyrrolidone (NMP, Sigma Aldrich) and 90% poly ethylene glycol (PEG, Sigma Aldrich). Mice were weighted and tumors were measured every 2-4 days. Tumor area was determined by the following equation: A = π * (a/2) * (b/2), were a and b are tumor length and width respectively. […] Table1. Mice pathologies after long-term treatment with vehicle or ETP-47037

h676 GSCs [5] = assay: Subcutaneous xenograft of h676 patient-derived GSCs in nude mice; assay type: in vivo
Method: (§2) h676 and h543 patient-derived GSCs were dissociated using a 200 µl pipet and resuspended in NeuroCult medium and matrigel in a 1:1 ratio in a concentration of 1000 cell/µl. Nude mice (athymic Nude-Foxn1^nu/nu from Harlan) were injected subcutaneously with 100 µl of the cell preparation. ETP-47037 (or vehicle) was orally administrated at a concentration of 75 mg/kg 5 days per week (see also section 8), starting one week after cell injection. The vehicle consisted in 10% N-methyl-2-pyrrolidone (NMP, Sigma Aldrich) and 90% poly ethylene glycol (PEG, Sigma Aldrich). Mice were weighted and tumors were measured every 2-4 days. Tumor area was determined by the following equation: A = π * (a/2) * (b/2), were a and b are tumor length and width respectively.
(§3) For oral administration, ETP-47037 was dissolved in 10% N-methyl-2-pyrrolidone (NMP, Sigma Aldrich) and 90% polyethylene glycol (PEG, Sigma Aldrich) at a concentration of 75 mg/kg.
Next, the present inventors set to address whether TRF1 chemical inhibition was able to block tumor growth in vivo. […] Thus, the two independent primary GSCs (h676 and h543) were injected subcutaneously into nude mice. One week after GSC injection, mice received oral administration of the vehicle (NMP 10%, PEG 90%) as placebo or the ETP-47037 TRF1 inhibitor 5 days/week, every week until human endpoint, and tumors were continuously followed-up by caliper measurements (Fig. 42A).

h543 GSCs [6] = assay: Subcutaneous xenograft of h543 patient-derived GSCs in nude mice; assay type: in vivo; settings: oral 75 mg/kg 5 days/week from one week after injection, caliper, vs vehicle
Method: as §2, §3
Next, the present inventors set to address whether TRF1 chemical inhibition was able to block tumor growth in vivo. […] Thus, the two independent primary GSCs (h676 and h543) were injected subcutaneously into nude mice. […]

U251 cells = assay: Sphere formation assay in U251 cells cultured with NSC media; assay type: cell-based, human; settings: seven days, compared to DMSO
Method: as §1
Finally, the present inventors checked if the three chemical compounds had the ability to reduce stemness in these cells. They cultured U251 cells with NSC media in order to obtain a suspension culture enriched in stem cells. The inventors performed a sphere formation assay with these cells treated with ETP-47228, ETP-47037 and ETP-50946 or DMSO for seven days. […] Of note, all these effects recapitulated what the present inventors observed with Trf1 genetic downregulation (See 2.2).

[7] = Brain blood barrier crossing (statement)
[8] = test system: K-Ras^G12V-induced lung tumors; settings: Trf1 chemical inhibition; García-Beccaria et al. 2015; cited from earlier work
[9] = h676 xenograft, post-mortem, vs placebo

SMILES: COc1cc(Nc2ncc3c(n2)-c2ccc(Cl)cc2C(c2c(F)cccc2OC)=NC3)ccc1C(=O)O [Alisertib]
- dependence on p-AKT (p-AKT): act independently of p-AKT

SMILES: CC(=O)O[C@@]12CO[C@@H]1C[C@H](O)[C@@]1(C)C(=O)[C@H](O)C3=C(C)[C@@H](OC(=O)[C@H](O)[C@@H](NC(=O)OC(C)(C)C)c4ccccc4)C[C@@](O)([C@@H](OC(=O)c4ccccc4)[C@H]21)C3(C)C [Docetaxel, reference compound]
- synergic effect with the PI3Ki (ETP-47037) (h676 GSCs [1]): significant synergic effect
- sphere formation (dose-response) (h543 GSCs [2]): most potent compounds
- sphere formation (dose-response) (h676 GSCs [3]): most potent compounds
- dependence on p-AKT (p-AKT): act independently of p-AKT

- crossing the brain blood barrier [7]: not crossing the brain blood barrier
SMILES: CS(=O)(=O)N1CCN(Cc2cc3c(N4CCOCC4)nc(-c4cnc(N)nc4)cn3n2)CC1 [ETP-47037]
- Mice pathologies after long-term treatment ([4]; one cell per mouse (Mice 1 to 4)): Mice 1: dermatitis, mild widening of lymphatic vessels in intestine; also recorded: Mice 2: dermatitis; also recorded: Mice 3: dermatitis; also recorded: Mice 4: dermatitis
- signs of sickness or morbidity ([4]; treated cohorts compared to the placebo group): did not detect any signs of sickness or morbidity
- proliferation marker Ki67 (h676 GSCs [5]; GSCs derived xenograft tumors, Ki67-positive cells per field, vs vehicle): reduces proliferation
- γH2AX DNA damage marker (h676 GSCs [5]; GSCs derived xenograft tumors, γH2AX-positive cells per field, vs vehicle): induces DNA damage
- decrease of TRF1 protein levels (h676 GSCs [5]; h676 xenograft tumors, immunofluorescence, vs placebo): 80%
- tumor areas (h676 GSCs [5]; h676 xenograft, oral 75 mg/kg 5 days/week from one week after injection, caliper, vs vehicle): drastic reduction
- tumor size (h676 GSCs [5]; [9]): striking decrease
- tumor weight (h676 GSCs [5]; [9]): striking decrease
- histological analysis of the tumors (h676 GSCs [5]; xenograft tumors after treatment): decreased cellularity in the tumors, together with necrotic areas, apoptotic bodies, compacted chromatin and fragmented DNA
- tumor areas (h543 GSCs [6]): drastic reduction
- diameter of spheres (h543 GSCs [2]): significant drastic reduction
- number of spheres (h543 GSCs [2]): significant drastic reduction
- diameter of spheres (h676 GSCs [3]): significant drastic reduction
- number of spheres (h676 GSCs [3]): significant drastic reduction
- diameter of neurospheres (U251 cells): strong reduction
- number of neurospheres (U251 cells): strong reduction
- growth of already established lung adenocarcinomas [8]: effectively impair the growth
- mouse and tissue viability [8]: without affecting mouse and tissue viability

SMILES: Cc1cnc2c(N3CCOCC3)nc(-c3ccc(NC(=O)Nc4ccc(C(=O)N5CCN(C)CC5)cc4)cc3)cn12 [ETP-47228]
- diameter of spheres (h543 GSCs [2]): significant drastic reduction
- number of spheres (h543 GSCs [2]): significant drastic reduction
- diameter of spheres (h676 GSCs [3]): significant drastic reduction
- number of spheres (h676 GSCs [3]): significant drastic reduction
- diameter of neurospheres (U251 cells): strong reduction
- number of neurospheres (U251 cells): strong reduction
- growth of already established lung adenocarcinomas [8]: effectively impair the growth
- mouse and tissue viability [8]: without affecting mouse and tissue viability

SMILES: NC(Cc1ccccc1)c1csc(Nc2ncccn2)n1 (centres unmarked) [ETP-50946]
- diameter of spheres (h543 GSCs [2]): significant drastic reduction
- number of spheres (h543 GSCs [2]): significant drastic reduction
- diameter of spheres (h676 GSCs [3]): significant drastic reduction
- number of spheres (h676 GSCs [3]): significant drastic reduction
- diameter of neurospheres (U251 cells): strong reduction
- number of neurospheres (U251 cells): strong reduction

SMILES: CN1CC[C@H](c2c(O)cc(O)c3c(=O)cc(-c4ccccc4Cl)oc23)[C@H](O)C1 [Flavopiridol]
- dependence on p-AKT (p-AKT): act independently of p-AKT

SMILES: C[C@@H](Oc1cc(-n2cnc3ccc(CN4CCN(C)CC4)cc32)sc1C(N)=O)c1ccccc1C(F)(F)F [GSK461364]
- dependence on p-AKT (p-AKT): p-AKT dependent

SMILES: Nc1ccn([C@@H]2O[C@H](CO)[C@@H](O)C2(F)F)c(=O)n1 [Gemcitabine, reference compound]
- synergic effect with the PI3Ki (ETP-47037) (h676 GSCs [1]): significant synergic effect
- sphere formation (dose-response) (h543 GSCs [2]): most potent compounds
- sphere formation (dose-response) (h676 GSCs [3]): most potent compounds
- dependence on p-AKT (p-AKT): act independently of p-AKT

SMILES: COc1ccc(-c2ccc3c(N4CCOCC4)nc(N4C[C@@H](C)O[C@@H](C)C4)nc3n2)cc1CO [KU-0063794]
- dependence on p-AKT (p-AKT): p-AKT dependent

SMILES: O=C(Nc1ccc2[nH]nc(-c3ccncc3)c2c1)[C@@H]1CCN(CC(=O)N2CCN(c3ccc(-c4ncccn4)cc3)CC2)C1 [SCH772984]
- synergic effect with the PI3Ki (ETP-47037) (h676 GSCs [1]): significant synergic effect
- dependence on p-AKT (p-AKT): act independently of p-AKT
